Assay results from publication PMC4904262 (ACS Medicinal Chemistry Letters, 2016).

Experiments:
Settings in all cases: 1 µM, ATP at Km
PKBBETA = PKBBETA (Homo sapiens, UniProt P31751)
ARG = ARG (Homo sapiens, UniProt P42684)
SYK = SYK (Homo sapiens, UniProt P43405)
[…] [1] = target: […] (Homo sapiens, UniProt Q8IU85)
MTOR/FKBP12 = MTOR/FKBP12 (Homo sapiens, UniProt P42345)
PKCALPHA = PKCALPHA (Homo sapiens, UniProt P17252)
KDR = KDR (Homo sapiens, UniProt P35968)
CSK = CSK (Homo sapiens, UniProt P41240)
Sequence of CSK (P41240 whole entry): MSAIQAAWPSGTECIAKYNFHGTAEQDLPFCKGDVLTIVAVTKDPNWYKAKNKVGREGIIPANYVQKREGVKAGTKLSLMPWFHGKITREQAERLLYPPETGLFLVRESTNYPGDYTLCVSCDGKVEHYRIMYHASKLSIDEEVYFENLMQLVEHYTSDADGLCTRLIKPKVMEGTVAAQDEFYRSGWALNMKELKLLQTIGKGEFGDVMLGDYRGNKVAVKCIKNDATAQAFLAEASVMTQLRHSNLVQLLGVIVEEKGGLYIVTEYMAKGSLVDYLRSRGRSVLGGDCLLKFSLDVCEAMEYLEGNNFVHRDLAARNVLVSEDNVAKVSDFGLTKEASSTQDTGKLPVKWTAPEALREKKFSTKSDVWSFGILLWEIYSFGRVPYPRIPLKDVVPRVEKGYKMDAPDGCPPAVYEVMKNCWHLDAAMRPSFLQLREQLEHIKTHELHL

MLCK = tested on: MLCK
BRK = BRK (Homo sapiens, UniProt Q13882)
GRK5 = GRK5 (Homo sapiens, UniProt P34947)
PAK5 = PAK5 (Homo sapiens, UniProt Q9P286)
IGF-1R, ACTIVATED = IGF-1R, ACTIVATED (Homo sapiens, UniProt P08069)
PRKX = PRKX (Homo sapiens, UniProt P51817)
CK1DELTA = CK1DELTA (Homo sapiens, UniProt P48730)
JNK1ALPHA1 = JNK1ALPHA1 (Homo sapiens, UniProt P45983)
BRSK1 = BRSK1 (Homo sapiens, UniProt Q8TDC3)
FLT1 = FLT1 (Homo sapiens, UniProt P17948)
ACK1 = ACK1 (Homo sapiens, UniProt Q07912)
GSK3BETA = GSK3BETA (Homo sapiens, UniProt P49841)
Sequence of GSK3BETA (P49841 whole entry): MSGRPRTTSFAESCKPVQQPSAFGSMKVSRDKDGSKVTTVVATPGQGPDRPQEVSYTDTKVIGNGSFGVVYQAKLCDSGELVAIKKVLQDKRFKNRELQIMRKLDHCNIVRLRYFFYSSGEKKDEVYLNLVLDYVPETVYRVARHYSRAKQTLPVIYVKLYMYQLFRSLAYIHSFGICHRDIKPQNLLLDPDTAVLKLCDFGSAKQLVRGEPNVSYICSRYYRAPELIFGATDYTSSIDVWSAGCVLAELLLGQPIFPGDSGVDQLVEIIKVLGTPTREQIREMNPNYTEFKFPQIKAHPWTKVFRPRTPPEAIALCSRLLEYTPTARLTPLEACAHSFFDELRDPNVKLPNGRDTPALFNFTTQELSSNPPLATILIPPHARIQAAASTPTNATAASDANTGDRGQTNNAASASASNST

MER = MER (Homo sapiens, UniProt Q12866)
Sequence of MER (Q12866 21-999): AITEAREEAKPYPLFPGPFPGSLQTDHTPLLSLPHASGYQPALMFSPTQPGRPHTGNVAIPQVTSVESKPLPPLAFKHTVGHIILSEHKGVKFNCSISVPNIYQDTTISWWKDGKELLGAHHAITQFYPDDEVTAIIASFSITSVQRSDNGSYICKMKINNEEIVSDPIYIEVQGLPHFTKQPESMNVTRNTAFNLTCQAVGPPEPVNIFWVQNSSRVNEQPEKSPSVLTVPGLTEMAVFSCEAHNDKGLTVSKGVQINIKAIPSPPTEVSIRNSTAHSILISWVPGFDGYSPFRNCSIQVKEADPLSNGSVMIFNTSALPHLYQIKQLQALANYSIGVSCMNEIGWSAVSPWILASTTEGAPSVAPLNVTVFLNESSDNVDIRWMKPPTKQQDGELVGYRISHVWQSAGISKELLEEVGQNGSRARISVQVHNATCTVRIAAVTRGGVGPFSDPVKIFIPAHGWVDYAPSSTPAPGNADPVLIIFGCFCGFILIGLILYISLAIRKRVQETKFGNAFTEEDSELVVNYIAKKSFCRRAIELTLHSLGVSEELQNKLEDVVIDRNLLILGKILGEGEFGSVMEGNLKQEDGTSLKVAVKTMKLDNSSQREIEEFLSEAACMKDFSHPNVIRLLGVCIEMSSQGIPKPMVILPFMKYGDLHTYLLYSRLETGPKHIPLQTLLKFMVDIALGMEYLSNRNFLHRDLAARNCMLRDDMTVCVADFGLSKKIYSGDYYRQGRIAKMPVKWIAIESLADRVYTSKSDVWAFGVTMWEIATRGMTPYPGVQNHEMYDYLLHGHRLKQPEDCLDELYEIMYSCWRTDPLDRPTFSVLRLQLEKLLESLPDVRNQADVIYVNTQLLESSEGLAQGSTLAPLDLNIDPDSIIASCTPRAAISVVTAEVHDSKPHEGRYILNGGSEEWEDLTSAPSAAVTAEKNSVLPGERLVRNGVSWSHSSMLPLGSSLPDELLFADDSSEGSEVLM

DRAK1 = DRAK1 (Homo sapiens, UniProt Q9UEE5)
BLK = BLK (Homo sapiens, UniProt P51451)
TEC ACTIVATED = TEC ACTIVATED (Homo sapiens, UniProt P42680)
ALK = ALK (Homo sapiens, UniProt Q9UM73)
PKCBII = PKCBII (Homo sapiens, UniProt P05771)
MARK1 = MARK1 (Homo sapiens, UniProt Q9P0L2)
[…] [2] = target: […] (Homo sapiens, UniProt P16234)
MRCKALPHA = MRCKALPHA (Homo sapiens, UniProt Q5VT25)
IRR = IRR (Homo sapiens, UniProt P14616)
PRKAA1 = PRKAA1 (Homo sapiens, UniProt Q13131)
Sequence of PRKAA1 (Q13131 whole entry): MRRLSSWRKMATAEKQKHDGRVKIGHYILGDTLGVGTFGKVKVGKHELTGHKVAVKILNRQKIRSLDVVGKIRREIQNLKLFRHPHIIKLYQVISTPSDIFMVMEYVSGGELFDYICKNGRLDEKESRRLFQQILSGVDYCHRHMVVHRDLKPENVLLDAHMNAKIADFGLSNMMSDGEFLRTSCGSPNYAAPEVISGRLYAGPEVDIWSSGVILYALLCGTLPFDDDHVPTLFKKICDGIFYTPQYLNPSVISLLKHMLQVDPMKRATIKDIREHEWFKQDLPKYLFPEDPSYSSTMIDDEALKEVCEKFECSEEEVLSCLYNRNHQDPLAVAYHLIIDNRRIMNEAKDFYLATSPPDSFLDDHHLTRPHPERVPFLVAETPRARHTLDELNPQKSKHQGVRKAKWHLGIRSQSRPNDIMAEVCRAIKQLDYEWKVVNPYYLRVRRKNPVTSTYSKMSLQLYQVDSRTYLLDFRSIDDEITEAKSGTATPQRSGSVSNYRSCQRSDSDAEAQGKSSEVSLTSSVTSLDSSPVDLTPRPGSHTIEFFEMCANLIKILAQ
Sequence of PRKAA1 (Q9Y478 whole entry partner): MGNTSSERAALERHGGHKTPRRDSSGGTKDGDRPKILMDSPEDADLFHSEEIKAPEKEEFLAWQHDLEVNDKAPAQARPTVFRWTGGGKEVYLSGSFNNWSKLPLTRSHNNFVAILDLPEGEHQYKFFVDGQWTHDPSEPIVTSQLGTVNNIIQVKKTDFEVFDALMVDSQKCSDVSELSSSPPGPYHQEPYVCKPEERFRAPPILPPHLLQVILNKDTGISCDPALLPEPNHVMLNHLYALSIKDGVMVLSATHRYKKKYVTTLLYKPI
Sequence of PRKAA1 (P54619 whole entry partner): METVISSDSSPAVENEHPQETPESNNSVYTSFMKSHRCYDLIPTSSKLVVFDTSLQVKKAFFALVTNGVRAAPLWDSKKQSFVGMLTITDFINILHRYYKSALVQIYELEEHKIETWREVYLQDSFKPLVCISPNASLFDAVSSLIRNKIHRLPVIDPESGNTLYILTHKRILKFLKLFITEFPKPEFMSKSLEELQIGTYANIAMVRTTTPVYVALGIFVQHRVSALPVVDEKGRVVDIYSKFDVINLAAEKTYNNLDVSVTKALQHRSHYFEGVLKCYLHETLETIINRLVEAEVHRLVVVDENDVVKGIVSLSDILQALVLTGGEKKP

EPHA3 = EPHA3 (Homo sapiens, UniProt P29320)
PLK1 = PLK1 (Homo sapiens, UniProt P53350)
PRKCQ = PRKCQ (Homo sapiens, UniProt Q04759)
PIM-1 = PIM-1 (Homo sapiens, UniProt P11309)
FES = FES (Homo sapiens, UniProt P07332)
JNK2ALPHA2 = JNK2ALPHA2 (Homo sapiens, UniProt P45984)
PASK = PASK (Homo sapiens, UniProt Q96RG2)
PKG1BETA = PKG1BETA (Homo sapiens, UniProt Q13976)
CDK6/CYCLIND3 = CDK6/CYCLIND3 (Homo sapiens, UniProt Q00534)
FGFR2 = FGFR2 (Homo sapiens, UniProt P21802)
JNK3 = JNK3 (Homo sapiens, UniProt P53779)
STK33 = STK33 (Homo sapiens, UniProt Q9BYT3)
NEK11 = NEK11 (Homo sapiens, UniProt Q8NG66)
FAK = FAK (Homo sapiens, UniProt Q05397)

Sequence of PKBBETA (P31751 whole entry): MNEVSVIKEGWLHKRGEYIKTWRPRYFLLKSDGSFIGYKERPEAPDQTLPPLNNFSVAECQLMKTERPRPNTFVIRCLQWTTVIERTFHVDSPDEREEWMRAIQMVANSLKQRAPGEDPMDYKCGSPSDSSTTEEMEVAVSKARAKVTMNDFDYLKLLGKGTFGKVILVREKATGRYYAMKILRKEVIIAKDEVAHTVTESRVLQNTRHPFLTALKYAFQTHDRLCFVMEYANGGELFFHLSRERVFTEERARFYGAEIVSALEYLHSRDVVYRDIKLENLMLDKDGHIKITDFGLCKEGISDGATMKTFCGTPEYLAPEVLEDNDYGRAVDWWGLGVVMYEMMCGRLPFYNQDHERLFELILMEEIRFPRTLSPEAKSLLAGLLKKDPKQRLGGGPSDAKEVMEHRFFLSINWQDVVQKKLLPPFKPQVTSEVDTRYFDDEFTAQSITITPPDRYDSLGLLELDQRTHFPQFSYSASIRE
Sequence of KDR (P35968 20-1356): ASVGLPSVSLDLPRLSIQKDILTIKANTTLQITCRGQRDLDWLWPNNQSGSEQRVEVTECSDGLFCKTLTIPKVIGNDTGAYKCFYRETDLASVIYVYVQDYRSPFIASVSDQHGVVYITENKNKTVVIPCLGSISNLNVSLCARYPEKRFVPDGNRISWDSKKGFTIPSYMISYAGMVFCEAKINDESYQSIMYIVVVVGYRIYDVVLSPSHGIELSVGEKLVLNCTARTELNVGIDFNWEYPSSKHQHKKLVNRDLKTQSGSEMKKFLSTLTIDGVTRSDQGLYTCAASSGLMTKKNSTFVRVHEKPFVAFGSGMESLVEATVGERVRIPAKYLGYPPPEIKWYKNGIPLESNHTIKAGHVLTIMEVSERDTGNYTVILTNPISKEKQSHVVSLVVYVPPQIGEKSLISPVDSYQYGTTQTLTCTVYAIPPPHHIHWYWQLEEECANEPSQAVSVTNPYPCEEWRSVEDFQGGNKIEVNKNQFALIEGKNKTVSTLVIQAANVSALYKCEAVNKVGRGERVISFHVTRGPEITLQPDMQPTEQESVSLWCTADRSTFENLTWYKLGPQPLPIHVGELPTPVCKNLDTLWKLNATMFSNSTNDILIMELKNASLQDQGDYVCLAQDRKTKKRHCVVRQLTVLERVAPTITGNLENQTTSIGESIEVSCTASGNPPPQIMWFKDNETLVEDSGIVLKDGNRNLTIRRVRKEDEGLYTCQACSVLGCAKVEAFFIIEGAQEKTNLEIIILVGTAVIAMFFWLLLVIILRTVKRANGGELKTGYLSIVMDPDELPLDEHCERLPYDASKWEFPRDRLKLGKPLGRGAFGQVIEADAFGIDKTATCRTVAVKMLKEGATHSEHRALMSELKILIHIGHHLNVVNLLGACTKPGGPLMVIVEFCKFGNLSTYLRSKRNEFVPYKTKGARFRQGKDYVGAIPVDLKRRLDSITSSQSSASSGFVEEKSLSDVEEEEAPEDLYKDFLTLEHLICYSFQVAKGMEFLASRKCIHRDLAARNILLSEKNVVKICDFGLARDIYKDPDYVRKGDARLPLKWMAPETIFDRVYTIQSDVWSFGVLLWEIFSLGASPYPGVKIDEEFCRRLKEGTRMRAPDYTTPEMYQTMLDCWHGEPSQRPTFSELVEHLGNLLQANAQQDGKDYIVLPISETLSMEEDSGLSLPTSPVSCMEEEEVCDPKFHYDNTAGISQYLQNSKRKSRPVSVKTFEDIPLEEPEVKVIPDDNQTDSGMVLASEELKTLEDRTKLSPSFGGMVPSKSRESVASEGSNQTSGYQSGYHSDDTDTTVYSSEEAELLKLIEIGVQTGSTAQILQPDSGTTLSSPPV

## COC1CN(C(=O)c2ccc3c(N)ncc(-c4ccc(-c5cnn(C)c5)cc4)c3n2)C1 [Compound 51]
PKBBETA
  percentage effect: 13%
ARG
  percentage effect: 11%
SYK
  percentage effect: -10%
[…] [1]
  percentage effect: -3%
MTOR/FKBP12
  percentage effect: -4%
PKCALPHA
  percentage effect: -10%
KDR
  percentage effect: 0%
CSK
  percentage effect: 21%
MLCK
  percentage effect: 0%
BRK
  percentage effect: 10%
GRK5
  percentage effect: 6%
PAK5
  percentage effect: -23%
IGF-1R, ACTIVATED
  percentage effect: -18%
PRKX
  percentage effect: 43%
CK1DELTA
  percentage effect: 1%
JNK1ALPHA1
  percentage effect: -4%
BRSK1
  percentage effect: 6%
FLT1
  percentage effect: -9%
ACK1
  percentage effect: 0%
GSK3BETA
  percentage effect: 1%
MER
  percentage effect: -3%
DRAK1
  percentage effect: 1%
BLK
  percentage effect: 0%
TEC ACTIVATED
  percentage effect: -18%
ALK
  percentage effect: -20%
PKCBII
  percentage effect: -4%
MARK1
  percentage effect: -5%
[…] [2]
  percentage effect: -3%
MRCKALPHA
  percentage effect: 2%
IRR
  percentage effect: -2%
PRKAA1
  percentage effect: -1%
EPHA3
  percentage effect: 10%
PLK1
  percentage effect: 1%
PRKCQ
  percentage effect: 5%
PIM-1
  percentage effect: -10%
FES
  percentage effect: -3%
JNK2ALPHA2
  percentage effect: -6%
PASK
  percentage effect: -8%
PKG1BETA
  percentage effect: 1%
CDK6/CYCLIND3
  percentage effect: -10%
FGFR2
  percentage effect: -3%
JNK3
  percentage effect: -33%
STK33
  percentage effect: -15%
NEK11
  percentage effect: 3%
FAK
  percentage effect: 3%

## COC1CN(C(=O)c2ccc3c(N)ncc(-c4ccc(-c5cnn(C)c5)cc4)c3c2)C1 [Compound 59]
PKBBETA
  percentage effect: -24%
ARG
  percentage effect: -7%
SYK
  percentage effect: -11%
[…] [1]
  percentage effect: 5%
MTOR/FKBP12
  percentage effect: 4%
PKCALPHA
  percentage effect: -2%
KDR
  percentage effect: -5%
CSK
  percentage effect: 7%
MLCK
  percentage effect: -20%
BRK
  percentage effect: 5%
GRK5
  percentage effect: 22%
PAK5
  percentage effect: -7%
IGF-1R, ACTIVATED
  percentage effect: -10%
PRKX
  percentage effect: 6%
CK1DELTA
  percentage effect: -10%
JNK1ALPHA1
  percentage effect: -11%
BRSK1
  percentage effect: 2%
FLT1
  percentage effect: -15%
ACK1
  percentage effect: -10%
GSK3BETA
  percentage effect: -9%
MER
  percentage effect: -4%
DRAK1
  percentage effect: -18%
BLK
  percentage effect: -26%
TEC ACTIVATED
  percentage effect: 13%
ALK
  percentage effect: -30%
PKCBII
  percentage effect: -3%
MARK1
  percentage effect: -14%
[…] [2]
  percentage effect: 11%
MRCKALPHA
  percentage effect: 0%
IRR
  percentage effect: -5%
PRKAA1
  percentage effect: -3%
EPHA3
  percentage effect: 10%
PLK1
  percentage effect: -6%
PRKCQ
  percentage effect: -12%
PIM-1
  percentage effect: -13%
FES
  percentage effect: -7%
JNK2ALPHA2
  percentage effect: 2%
PASK
  percentage effect: -4%
PKG1BETA
  percentage effect: 1%
CDK6/CYCLIND3
  percentage effect: -14%
FGFR2
  percentage effect: -6%
JNK3
  percentage effect: -8%
STK33
  percentage effect: 1%
NEK11
  percentage effect: -22%
FAK
  percentage effect: -18%
